Source: patent publication US12054742B2, “Compositions and methods to derive mesodermal lineage cells and mixed tissue organoids from embryonic stem cells” (THE REGENTS OF THE UNIVERSITY OF MICHIGAN, priority 2018, dated 2024)

Key:
Format in all cases: cell-based, mouse
[1] = system: hWDR5Dox;mWdr5KO (mWdr5 KO) organoids; test: Cell proliferation of differentiating mWdr5 KO organoids in retinal culture conditions (EB day 4); conditions: Dox added at T0h, organoid day 4
Description: (§1) FIGS. 2A-2H. WDR5 regulates retinal progenitor cell fate transition in a dose- and time-dependent manner. (FIG. 2A) Tight control of exogenous HA-hWDR5 during early time window of ESC differentiation. hWDR5^Dox;mWdr5^KO (i.e., mWdr5 KO) ESCs were maintained in Dox (+) ESC media and Dox was removed upon ESC differentiation (day 0 or EB day 0 (EB0)). At different time points (0 h, 24 h, 36 h, 48 h, 60 h), cells were collected and subjected to probe HA-hWDR5 expression (a-HA). Tubulin: loading control. (FIG. 2B) Dose-dependent induction of exogenous hWDR5 and H3K4me during ESC differentiation. mWdr5 KO ESCs were maintained in Dox (+) ESC media and Dox was removed upon ESC differentiation (day 0). At 12 h post differentiation, different doses of Dox were added to mWdr5 KO EBs. At embryoid body (EB) day 4 (EB4), EBs were collected and extracted histones were subjected to western blotting. Total H3 was used as loading control. […] Cell proliferation was determined at EB day 4 (FIG. 2C) and Rx-GFP positive retinal progenitor cells were scored by flow cytometry at day 5 (FIG. 2D). […] Cell proliferation was recorded at EB day 4 (FIG. 2E) and Rx-GFP positive retinal progenitor cells at EB day 5 were scored by flow cytometry (FIG. 2F). […] (FIG. 2H) Wdr5 regulates RPC differentiation in a time-dependent manner as determined by Rx/Rax mRNA RT-qPCR. […]

[2] = system: hWDR5Dox;mWdr5KO (mWdr5 KO) organoids; test: Rx-GFP (+) retinal lineage cell differentiation scored by flow cytometry (day 5); conditions: Dox from T0h
Description: as §1

[3] = system: hWDR5Dox;mWdr5KO organoids; test: RT-qPCR of cardiomyocyte markers cTnT and aMHC after late (T48h) induction of hWDR5; conditions: Dox added at T48h
Description: FIGS. 4A-4K. Late induction of hWDR5 skews ESC differentiation from retinal neuroectoderm to cardiac mesoderm. (FIGS. 4A, 4B, 4C and 4D) RT-qPCR analysis of pluripotent marker (Oct4, FIG. 4A), neuroepithelial marker (N-Cadherin, FIG. 4B), retinal ectoderm marker (Rax/Rx, FIG. 4C) and cardiomyocyte mesoderm marker (cTnT, FIG. 4D) during time-course differentiation of WT, early induction (T12h), late induction (T36h or T48h) of exogenous hWDR5 in hWDR5^Dox;mWdr5^KO (i.e., mWdr5 KO) EBs. […] (FIG. 4H) Critical time points for exogenous hWDR5 linked to cardiomyocyte differentiation were determined by cTnT RT-qPCR. […] Induction of early mesoderm marker (T/Brachyury) and cTnT was determined by RT-qPCR.
Trizol reagent (ThermoFisher Scientific) and RNeasy mini kit (Qiagen) were utilized for RNA isolation from ESCs or EBs. […] Data were automatically analyzed using Bio-Rad CFX manager software using Δ/ΔCt method.
In various aspects of the disclosure, quantitative reverse transcription PCR (RT-qPCR) is used to analyze results obtained in the examples. […] Data is automatically analyzed using Bio-Rad CFX manager software using Δ/ΔCt method.
Third, immunohistochemistry (IHC) was used to assay for cardiomyocyte-specific proteins in T48h conditions. […] Neither cTnT nor Myh1e were detected in WT and T12h conditions. […]

## C[C@H]1c2cccc(O)c2C(=O)C2=C(O)[C@]3(O)C(=O)C(C(N)=O)=C(O)[C@@H](N(C)C)[C@@H]3[C@@H](O)[C@@H]21 [Dox, doxycycline]
[1]
  Dox concentration at which rescue of the proliferation defect reached a plateau: 250 ng/mL
[2]
  Dox dose at which proportion of Rx-GFP (+) RLCs reached a plateau: 500 ng/mL
  Dox dose at which proportion of Rx-GFP (+) RLCs was comparable to WT controls: 250 ng/mL
[3]
  Dox concentrations that induced cTnT and aMHC expression: up to 125 ng/ml
